Where “and” joins values, the source holds several entries; their conditions need not be identical. Equal entries are not always repeated.
Tested on: amphetamine-induced hyperactivity in rats
Test: amphetamine-induced hyperactivity model of mania in rats (automated activity monitors)
Format: in vivo, Sprague Dawley rats
Protocol: Evaluation of possible anti-bipolar effects of compounds 1 to 4 was effected by an amphetamine-induced hyperactivity model of mania in rats. Each of the compounds was examined in a separate experiment and compared with a control group, treated with the same dose of amphetamine.
Twenty Sprague Dawley rats, weighing 200-250 g served for each of the four (4) experiments. Rats were housed in a colony room with constant temperature (22° C.), 12 h light/dark cycle and free access to food and water. Each experiment consisted of two groups (n=10 per group), one group was treated with the compound (1 to 4) and the other with vehicle solution. In experiments 1-4, the drugs were administered intraperitoneally (IP). All experimental procedures were conducted during the light phase of the light/dark cycle.
Amphetamine (0.5 mg/kg, sub-cutaneous (s.c.), diluted in de-ionized water) was injected into all rats (both groups of each experiment) immediately prior to behavioral testing. In experiments 1 to 4, compounds (R)-N-acetyl aminoindan (1); (S)-N-indanyl glycinamide HCl (2); (rac)-N-(2-aminoacetyl)-1-aminoindan HCl (3); and (S)-N-formyl aminoindan (4) were injected twice intraperitoneally (IP) at a dose of 75 mg/kg, 19 h and 3 h prior to behavioral testing in experiments. All compounds were suspended in a 5% methyl cellulose solution. The vehicle solution was administered to the control animals.
Immediately after amphetamine injection, rats were placed in automated activity monitors and their activity levels were scored every 10 minutes in the 30 minute time span for experiments 1 to 4. Activity scores included separate measurements of horizontal (locomotion) and of vertical (rearing) activity.
Repeated ANOVA measurements were used to examine the effects of compounds 1 to 4 on locomotor and on vertical activity. One factor measured the treatment of the rats using compounds 1 to 4 or the control vehicle; the repeated measure factor was time (three 10 minute intervals). Post hoc LSD (least significant difference) tests were used to determine whether significant differences occurred in different time periods, where relevant.

[1] = group mean n=10, 75 mg/kg IP twice, amphetamine 0.5 mg/kg s.c., cumulative to 20 min
[2] = group mean n=10, 75 mg/kg IP twice, amphetamine 0.5 mg/kg s.c., cumulative to 30 min
[3] = group mean n=10, 75 mg/kg IP twice, amphetamine 0.5 mg/kg s.c., first 10 min
[4] = group mean n=10, 75 mg/kg IP twice, amphetamine 0.5 mg/kg s.c., second 10 min interval
[5] = group mean n=10, 75 mg/kg IP twice, amphetamine 0.5 mg/kg s.c., third 10 min interval
[6] = individual rat, 75 mg/kg IP twice, amphetamine 0.5 mg/kg s.c., cumulative to 20 min
[7] = individual rat, 75 mg/kg IP twice, amphetamine 0.5 mg/kg s.c., cumulative to 30 min
[8] = individual rat, 75 mg/kg IP twice, amphetamine 0.5 mg/kg s.c., non cumulative, second 10 min interval
[9] = individual rat, 75 mg/kg IP twice, amphetamine 0.5 mg/kg s.c., non cumulative, third 10 min interval

With `CC(=O)N[C@@H]1CCc2ccccc21` [Compound 1, (R)-N-acetyl aminoindan] as the compound, how does the “Effect on amphetamine-induced locomotor activity versus control (ANOVA)” value (75 mg/kg IP, 19 h and 3 h before testing, result in words) read?
Its value is “significantly reduced locomotion”.

And the “Effect on activity levels of rats (summary)” value (75 mg/kg IP, amphetamine-treated rats, result in words)?
Its value is “reduced the activity levels”.

And the “Anti-manic potential from the tested model (conclusion)” value (based on the tested model and doses, result in words)?
Its value is “show anti-manic potential”.

What about the “Locomotor activity, 20 min, mean” value [1] of the same compound?
The value was 945.8 counts.

What about the “Vertical activity, 20 min, mean” value [1] of the same compound?
The value was 22.5 counts.

What about the “Locomotor activity, 30 min, mean” value [2] of the same compound?
Its value is 1395.6 counts.

And the “Vertical activity, 30 min, mean” value [2]?
The value was 33.8 counts.

What about the “Locomotor activity, 10 min, mean” value [3] of the same compound?
The value was 545.3 counts.

What about the “Vertical activity, 10 min, mean” value [3] of the same compound?
Its value is 14.2 counts.

What about the “Locomotor activity, 20-10 min, mean” value [4] of the same compound?
Its value is 400.5 counts.

What about the “Vertical activity, 20-10 min, mean” value [4] of the same compound?
The value was 8.3 counts.

And the “Locomotor activity, 30-20 min, mean” value [5]?
The value was 449.8 counts.

And the “Vertical activity, 30-20 min, mean” value [5]?
The value was 11.3 counts.

And the “Locomotor activity, 10 min” value (individual rat, 75 mg/kg IP twice, 19 h and 3 h before testing, amphetamine 0.5 mg/kg s.c., first 10 min)?
The value was 600 counts and 448 counts and 718 counts and 740 counts and 570 counts and 426 counts and 395 counts and 462 counts and 681 counts and 413 counts.

And the “Locomotor activity, 20 min” value [6]?
The value was 930 counts and 677 counts and 1125 counts and 1026 counts and 1147 counts and 802 counts and 800 counts and 794 counts and 1361 counts and 796 counts.

What about the “Vertical activity, 20 min” value [6] of the same compound?
Its value is 34 counts and 12 counts (2×) and 18 counts and 29 counts and 37 counts and 28 counts and 11 counts and 39 counts and 5 counts.

What about the “Locomotor activity, 30 min” value [7] of the same compound?
Its value is 1436 counts and 1027 counts and 1653 counts and 1317 counts and 1776 counts and 1230 counts and 1053 counts and 1150 counts and 2064 counts and 1250 counts.

And the “Vertical activity, 30 min” value [7]?
The value was 62 counts and 18 counts and 20 counts and 31 counts and 53 counts and 38 counts and 12 counts and 21 counts and 76 counts and 7 counts.

And the “Vertical activity, 10 min” value (individual rat, 75 mg/kg IP twice, amphetamine 0.5 mg/kg s.c., first 10 min)?
The value was 27 counts and 9 counts and 16 counts (2×) and 29 counts and 20 counts and 5 counts and 10 counts and 6 counts and 4 counts.

And the “Locomotor activity, 20-10 min” value [8]?
Its value is 330 counts and 229 counts and 407 counts and 286 counts and 577 counts and 376 counts and 405 counts and 332 counts and 680 counts and 383 counts.

What about the “Vertical activity, 20-10 min” value [8] of the same compound?
Its value is 7 counts (2×) and 3 counts and 2 counts and 0 counts and 17 counts and 12 counts and 1 counts (2×) and 33 counts.

What about the “Locomotor activity, 30-20 min” value [9] of the same compound?
Its value is 506 counts and 350 counts and 528 counts and 291 counts and 629 counts and 428 counts and 253 counts and 356 counts and 703 counts and 454 counts.

And the “Vertical activity, 30-20 min” value [9]?
The value was 28 counts and 6 counts and 2 counts (3×) and 16 counts and 10 counts (2×) and 0 counts and 37 counts.

Reference: US6492426B1, “Use of 1-aminoindan derivatives for treatment of mania in bipolar mood disorder” (priority 1999, dated 2002)
